The species named for test [1] is Danio rerio. In words: Inhibition of larval development in zebra fish assessed as retardation of blood circulatory system development at 10 ug/mL after 32 hrs. The format is functional, organism-based.
The subject of test [2] is Danio rerio. Briefly: Inhibition of larval development in zebra fish assessed as induction of edema in heart at 10 ug/mL after 3 days. The format is functional, organism-based.
For test [3], the species on record is Danio rerio. In words: Inhibition of larval development in zebra fish at 1 ug/mL. Type of test: functional, organism-based.
For test [4], the species on record is Danio rerio. In words: Inhibition of larval development in zebra fish assessed as induction of thrombosis in heart at 10 ug/mL after 3 days. Type of test: functional, organism-based.
For test [5], the species on record is Danio rerio. In words: Inhibition of larval development in zebra fish assessed as mortality at 10 ug/mL after 48 hrs. The format is functional. The arrangement: scale not given: the % may be the effect or the level left.
The species entered for test [6] is Danio rerio. Briefly: Inhibition of larval development in zebra fish assessed as retardation of blood circulatory system development at 10 ug/mL after 24 hrs. The format is functional, organism-based.
The species entered for test [7] is Danio rerio. In words: Inhibition of larval development in zebra fish assessed as mortality at 10 ug/mL after 24 hrs. The format is functional. More on the design: scale not given: the % may be the effect or the level left.
Test [8] is filed under the species Danio rerio. Briefly: Inhibition of larval development in zebra fish assessed as tail bending at 100 ug/mL after 5 days. The format is functional, organism-based.
Test [9] is filed under the species Danio rerio. In words: Inhibition of larval development in zebra fish assessed as tail bending at 100 ug/mL after 3 days. The format is functional. The arrangement: scale not given: the % may be the effect or the level left.
The species entered for test [10] is Danio rerio. In words: Inhibition of larval development in zebra fish assessed as effect on larval mortality at 10 ug/mL. The format is functional, organism-based.
Test [11] relates to Danio rerio. Briefly: Inhibition of larval development in zebra fish assessed as induction of edema in heart at 100 ug/mL after 3 days. Type of test: functional, organism-based.
For test [12], the system named is Danio rerio. Briefly: Inhibition of larval development in zebra fish assessed as induction of edema in heart at 100 ug/mL after 5 days. The format is functional, organism-based.
Test [13] is filed under the species Danio rerio. Briefly: Inhibition of larval development in zebra fish assessed as effect on larval mortality at 100 ug/mL. The format is functional, organism-based.
The species named for test [14] is Danio rerio. In words: Inhibition of larval development in zebra fish at 10 ug/mL. Type of test: functional, organism-based.

The structures appear in SMILES notation. Activity calls are given as the source filed them. The calls are words filed in the database; no cut-off is given here.

Take `CC/C=C\C[C@@H]1O[C@H]1/C=C/C1CCCCCCCC(=O)O1` (relative stereo) [MUEGGELONE]: the outcome in the test filed under Danio rerio [1], in the test with Danio rerio [2], in the test listed under Danio rerio [4] and in the test filed under Danio rerio [6] was Active. Further, in the test filed under Danio rerio [3], the result was inactive. Moreover, the Activity in the test listed under Danio rerio [5] and in the test filed under Danio rerio [7] was 45% each time.

Turning to `C=C(C)[C@@H]1CC[C@]2(C)CC[C@]3(C)[C@H](CC[C@@H]4[C@@]5(C)CC[C@H](OC(C)=O)C(C)(C)[C@@H]5CC[C@]43C)[C@@H]12` [LUPENYL ACETATE], the result in the test filed under Danio rerio [8], with Danio rerio [11] and in the test on Danio rerio [12] was Active. Further, the Activity in the test listed under Danio rerio [9] was 30%. In addition, the result in the test filed under Danio rerio [10], in the test listed under Danio rerio [13] and in the test listed under Danio rerio [14] was inactive.

Values taken from ChEMBL document CHEMBL1158865, “Mueggelone, a novel inhibitor of fish development from the fresh water cyanobacterium Aphanizomenon flos-aquae” (1997).
